Measured values: patent publication US10981932B2, “Macrocyclic indole derivatives” (Bayer Aktiengesellschaft, priority 2016, dated 2021)
Where two headings read alike, the source gives them in different places.

How the values were obtained:
MCL-1 = MCL-1 (Homo sapiens, UniProt Q07820); assay: Protein-protein interaction assay MCL-1/Noxa BH3 peptide (MCL-1 assay), TR-FRET; assay type: binding; conditions: MBP-MCL-1 / Noxa BH3-derived peptide, median
Outline: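 TR-FRET, 665/622 nm emission ratio (excitation 330–350 nm), measured MCL-1/Noxa complex formation. 1 nM MBP-MCL-1, 50 mM Tris/HCl pH 7, 0.1% BGG, 2 mM DTT. Incubation 1 h at 22 °C, then overnight at 4 °C. IC50 by 4-parameter regression, normalized to DMSO (0%) and no-MCL-1 (100%) controls.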

SUDHL5 [1] = assay: Induction of caspase-3/7 activity (Caspase-Glo 3/7), SUDHL5; assay type: cell-based; conditions: caspase-3/7 induction, SUDHL5 cells, 3 h treatment, median
Outline: (§1)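 DLBCL cells treated with compounds for 3 h at 37 °C, then caspase-3/7 activity read by Caspase-Glo 3/7 luminescence. Medium-only background subtracted; EC50 fitted with C0 fixed at 1 and top set to the reference compound's maximal induction.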

SUDHL10 [2] = assay: Induction of caspase-3/7 activity (Caspase-Glo 3/7), SUDHL10; assay type: cell-based; conditions: caspase-3/7 induction, SUDHL10 cells, 3 h treatment, median
Outline: as §1

SUDHL5 [3] = assay: Anti-proliferative effect (CellTiter-Glo, 72 h), SUDHL5; assay type: cell-based; conditions: SUDHL5 cells, antiproliferation, median, read-out: Antiproli SUDHL5 [M] (median)
Outline: (§2)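 A time zero plate, read with CellTiter-Glo shortly after seeding, served as baseline; compound-treated plates were incubated 72 h at 37 °C and then read identically by luminescence.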

A2780 = assay: Anti-proliferative effect (CellTiter-Glo, 72 h), A2780; assay type: cell-based; conditions: A2780 cells, median, read-out: IC50 antiproliferation assay A2780 [M] (median)
Outline: as §2

MV-4-11 = assay: Anti-proliferative effect (CellTiter-Glo, 72 h), MV-4-11; assay type: cell-based; conditions: Homo sapiens, MV4-11, 72 h, MV-4-11 cells, median, read-out: IC50 antiproliferation assay MV-4-11 [M] (median)
Procedure: Assessment of the Anti-Proliferative Effect of Compounds in Different Cell Lines
The impact of compounds on the proliferation of different cell lines was assessed using the CellTiter-Glo® Luminescent Cell Viability reagent from Promega (G7573). Of note, SUDHL10 and SUDHL5 (DLBCL), NCI-H929 (Multiple Myeloma), A2780 (ovarian carcinoma) as well as MV-4-11(AML) cells are sensitive to MCL-1 inhibition.
In parallel, cells were plated in a reference (day 0) plate for time zero determination.
Rim wells were excluded. The cells were incubated for 72 h hours in a humidified incubator at 37° C. The day 0 plate was measured by adding 30 μl/well of CTG solution (CellTiter-Glo® Luminescent Cell Viability reagent, Promega G7573) to time zero wells in the reference plate followed by a 10 minutes incubation and luminescence reading at 0.1 ms, using the PHERAstar FS microplate reader (BMG Labtech).
After 72 h incubation, the treated plates were measured in the same way as the day 0 plate mentioned above.

SUDHL5 [4] = assay: Induction of cytotoxicity (CellTiter-Glo, 5 h), SUDHL5
SUDHL10 [5] = assay: Induction of cytotoxicity (CellTiter-Glo, 5 h), SUDHL10
Procedure: Therefore, cytotoxicity assays were run in parallel in SUDHL5 and SUDHL10 cells.
The different cell lines were plated in culture medium (RPMI 1640 [GIBCO #22400-089]supplemented with 10% Fetal Bovine Serum) at a density of 3.300 cells in 30 μl/well in a sterile, solid black, flat bottom, polystyrene, TC-treated 384-well microplate (Corning #3571) using Multidrop Combi Reagent Dispenser. As a control, medium without cells was also added to the plate. Cells were incubated in a humidified incubator at 37° C. overnight. On the next day, the cells were treated with compounds (stock solution, 10 mM in DMSO) using the HP D300 Digital Dispenser in a concentration range of 3.3×10e-5 M (33 μM) to 5×10e-9 M (5 nM) in a single-dot curve with at least 16 dilutions and a DMSO concentration of 0.33%. Rim wells were excluded. The cells were incubated for 5 h hours in a humidified incubator at 37° C. After this incubation, 30 μl of CellTiter-Glo@ Luminescent Cell Viability reagent (Promega, G7573) was added to each well using the Multidrop Combi Reagent Dispenser, followed by 15 min incubation on a shaker at room temperature. Finally, luminescence was read at 0.1 ms, with a gain of 3000 using the PHERAstar FS microplate reader (BMG Labtech).
The Bella DRC Master Sheet was used to calculate IC50s, with fixed CI=0 and C0=1.

[6] = Homo sapiens, SU-DHL-5, 72 h, 72 h
[7] = Homo sapiens, SU-DHL-5, 5 h, read-out: Cytotox SUDHL5 [M] (median), SUDHL5 cells, cytotoxicity induction, CellTiter-Glo, 5 h, median
[8] = Homo sapiens, SU-DHL10, 5 h, read-out: Cytotox SUDHL10 [M] (median), SUDHL10 cells, cytotoxicity induction, CellTiter-Glo, 5 h, median

Sequence of MCL-1 (Q07820 whole entry): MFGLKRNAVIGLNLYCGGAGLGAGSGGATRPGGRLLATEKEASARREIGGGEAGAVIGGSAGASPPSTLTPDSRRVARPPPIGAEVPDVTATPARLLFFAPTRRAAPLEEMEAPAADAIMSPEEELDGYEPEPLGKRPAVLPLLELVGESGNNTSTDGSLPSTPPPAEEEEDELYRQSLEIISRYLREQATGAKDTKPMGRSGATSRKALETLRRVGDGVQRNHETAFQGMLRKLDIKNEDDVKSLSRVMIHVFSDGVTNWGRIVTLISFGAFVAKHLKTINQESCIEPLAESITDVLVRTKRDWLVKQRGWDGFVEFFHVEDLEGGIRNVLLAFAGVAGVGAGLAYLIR

IC50 (MCL-1) [µM] | EC50 (SUDHL5 [1]; Homo sapiens, SU-DHL-5, 3 h) [µM] | EC50 (SUDHL10 [2]; Homo sapiens, SU-DHL10, 3 h) [µM] | IC50 (SUDHL5 [3]; [6]) [M] | IC50 (A2780; Homo sapiens, A2780, 72 h) [M] | IC50 (MV-4-11) [M] | IC50 (A2780) [M] | EC50 (SUDHL5 [1]) [µM] | IC50 (SUDHL5 [3]; 72 h) [M] | EC50 (SUDHL10 [2]) [µM] | IC50 (SUDHL5 [3]; 72 h incubation) [M] | Compound | IC50 (SUDHL5 [4]; [7]) [M] | IC50 (SUDHL10 [5]; [8]) [M] | IC50 (SUDHL5 [4]; read-out: Cytotox SUDHL5 [M] (median), SUDHL5 cells, cytotoxicity induction, CellTiter-Glo, 5 h incubation, median) | IC50 (SUDHL10 [5]; read-out: Cytotox SUDHL10 [M] (median), SUDHL10 cells, cytotoxicity induction, CellTiter-Glo, 5 h incubation, median)
0.00528 | 17 | 19 | 9.86e-06 | 1.72e-05 | 1.58e-05 | – | – | – | – | – | Cc1c2c(nn1C)COCCCCn1c(C(=O)O)c(CCCOc3cccc4cc(Cl)ccc34)c3cccc-2c31 (racemic) [Example 295, (rac)-7-{3-[(6-chloronaphthalen-1-yl)oxy]propyl}-2,3-dimethyl-2,10,11,12,13,15-hexahydropyrazolo[4′,3′:9,10][1,6]oxazacycloundecino[8,7,6-hi]indole-8-carboxylic Acid] | 1.61e-05 | 1.8e-05 | – | –
0.0017 | 8.78 | 20.5 | 1.09e-05 | 2.66e-05 | 9.4e-06 | – | – | – | – | – | CCc1nn(C)c2c1-c1cccc3c(CCCOc4cccc5c(F)cccc45)c(C(=O)O)n(c13)CCCCOC2 (racemic) [Example 298, (rac)-3-ethyl-7-{3-[(5-fluoronaphthalen-1-yl)oxy]propyl}-1-methyl-1,10,11,12,13,15-hexahydropyrazolo[4′,3′:9,10][1,6]oxazacycloundecino[8,7,6-hi]indole-8-carboxylic Acid] | 9.1e-06 | 2.27e-05 | – | –
0.00143 | 1.19 | 3.29 | 2e-06 | 1.56e-05 | 5.99e-06 | – | – | – | – | – | Cc1c2c(nn1C)COCCCCn1c(C(=O)O)c(CCCOc3cccc4cc(F)ccc34)c3cccc-2c31 (racemic) [Example 301, (rac)-7-{3-[(6-fluoronaphthalen-1-yl)oxy]propyl}-2,3-dimethyl-2,10,11,12,13,15-hexahydropyrazolo[4′,3′:9,10][1,6]oxazacycloundecino[8,7,6-hi]indole-8-carboxylic Acid] | 1.6e-06 | 3.5e-06 | – | –
0.0105 | > 33 | > 33 | 9.84e-06 | 1.34e-05 | 3.13e-05 | – | – | – | – | – | CCc1nn(C)c2c1-c1cccc3c(CCCOc4cccc5cc(Cl)ccc45)c(C(=O)O)n(c13)CCCCOC2 (racemic) [Example 304, (rac)-11-(3-((6-chloronaphthalen-1-yl)oxy)propyl)-12-ethyl-10-methyl-4,5,6,7,9,10-hexahydropyrazolo[4′,3′:9,10][1,6]oxaazacycloundecino[8,7,6-hi]indole-2-carboxylic Acid] | > 3.3e-05 | > 3.3e-05 | – | –
0.0129 | > 33 | > 33 | 1.19e-05 | 1.76e-05 | 1.84e-05 | – | – | – | – | – | Cc1ccc2c(OCCCc3c(C(=O)O)n4c5c(cccc35)-c3c(nn(C)c3C)COCCCC4)cccc2c1 (racemic) [Example 307, (rac)-11,12-dimethyl-1-(3-((6-methylnaphthalen-1-yl)oxy)propyl)-4,5,6,7,9,11-hexahydropyrazolo[4′,3′:9,10][1,6]oxaazacycloundecino[8,7,6-hi]indole-2-carboxylic Acid] | > 3.3e-05 | > 3.3e-05 | – | –
0.0331 | 27.4 | 21.3 | 5.42e-06 | 6.58e-06 | 1.31e-05 | – | – | – | – | – | Cc1c2c(nn1C)COCCCCn1c(C(=O)O)c(CCCOc3cccc4cc(C(F)(F)F)ccc34)c3cccc-2c31 (racemic) [Example 310] | 2.36e-05 | 1.75e-05 | – | –
0.00308 | 17.7 | > 33 | 1.43e-05 | > 3.3e-05 | > 3.3e-05 | – | – | – | – | – | Cc1nn(C)c2c1-c1cccc3c(CCCOc4cccc5c(Cl)cccc45)c(C(=O)O)n(c13)CCCCOC2 (racemic) [Example 316, (rac)-1-(3-((5-chloronaphthalen-1-yl)oxy)propyl)-10,12-dimethyl-4,5,6,7,9,10-hexahydropyrazolo[4′,3′:9,10][1,6]oxaazacycloundecino[8,7,6-hi]indole-2-carboxylic Acid] | 1.94e-05 | > 3.3e-05 | – | –
0.296 | > 33 | > 33 | > 3.3e-05 | 2.73e-05 | > 3.3e-05 | > 3.3e-05 | – | – | – | – | Cc1c2c(nn1C)COCCCCn1c(C(=O)O)c(CCc3cccc4ccccc34)c3cccc-2c31 (racemic) [Example 354, (rac)-2,3-dimethyl-7-[2-(naphthalen-1-yl)ethyl]-2,10,11,12,13,15-hexahydropyrazolo[4′,3′:9,10][1,6]oxazacycloundecino[8,7,6-hi]indole-8-carboxylic Acid] | > 3.3e-05 | > 3.3e-05 | – | –
1.51 | > 33 | > 33 | 3.2e-05 | > 3.3e-05 | > 3.3e-05 | – | – | – | – | – | Cc1c2c(nn1C)COCCCCn1c(C(=O)O)c(CCc3ccc(C(F)(F)F)cc3)c3cccc-2c31 (racemic) [Example 355, (rac)-2,3-dimethyl-7-{2-[4-(trifluoromethyl)phenyl]ethyl}-2,10,11,12,13,15-hexahydropyrazolo[4′,3′:9,10][1,6]oxazacycloundecino[8,7,6-hi]indole-8-carboxylic Acid] | > 3.3e-05 | > 3.3e-05 | – | –
0.00943 | 27.8 | > 33 | 2.53e-05 | > 3.3e-05 | > 3.3e-05 | – | > 33 | > 3.3e-05 | – | – | Cc1c2c(nn1C)CNCCCCn1c(C(=O)O)c(CCCOc3cccc4ccccc34)c3cccc-2c31 (racemic) [Example 356, (rac)-2,3-dimethyl-7-[3-(naphthalen-1-yloxy)propyl]-10,11,12,13,14,15-hexahydro-2H-pyrazolo[3′,4′:8,9][1,6]diazacycloundecino[10,11,1-hi]indole-8-carboxylic Acid] | > 3.3e-05 | > 3.3e-05 | – | –
0.0409 | > 33 | > 33 | 3.27e-05 | > 3.3e-05 | 3.19e-05 | – | – | – | – | – | Cc1c2c(nn1C)COCCCCn1c(C(=O)O)c(CCOc3ccc4ccccc4c3)c3cccc-2c31 (racemic) [Example 357, (rac)-2,3-dimethyl-7-[2-(naphthalen-2-yloxy)ethyl]-2,10,11,12,13,15-hexahydropyrazolo[4′,3′:9,10][1,6]oxazacycloundecino[8,7,6-hi]indole-8-carboxylic Acid] | > 3.3e-05 | > 3.3e-05 | – | –
0.00373 | – | – | – | 2.03e-05 | 2.68e-06 | – | 2.99 | – | 14 | 3.12e-06 | COc1c2c(nn1C)COCCCCn1c(C(=O)O)c(CCCOc3cccc4ccccc34)c3cccc-2c31 (single isomer, unassigned) [Example 208, 3-methoxy-2-methyl-7-[3-(naphthalen-1-yloxy)propyl]-2,10,11,12,13,15-hexahydropyrazolo[4′,3′:9,10][1,6]oxazacycloundecino[8,7,6-hi]indole-8-carboxylate] | – | – | 2.63e-06 | 9.98e-06
